From patent US11957783B2, “Topical immunosensitizers to treat viral and fungal infections” (Squarex, LLC, priority 2018, dated 2024)
Several values for one entry are separate records, joined by “and”; a condition that tells them apart may be missing. Equal entries are not always repeated. Marks after values point to notes of the source that are not given here.

Test system: herpes labialis outbreak
Assay: Clinical trial of herpes labialis outbreaks after sensitization dose (Example 2)
Assay type: in vivo, human
Details: for Average days to first outbreak after the sensitization dose: 120 days used if no outbreak in 120 days
Protocol: The median time to the next outbreak for the placebo group was 40 days vs more than 122 days for the 2.0% SADBE group, which difference was highly significant (P=0.009) (Palli 2017). SADBE is a topical immunosensitizer that induces a delayed-type hypersensitivity response and is commonly used in the treatment of verruca vulgaris and alopecia areata (Lee 1999; Silverberg 2000, Rokhshar 1998). […]
(p<0.05). The average days to the first outbreak after the sensitization dose was also measured. […] The A: placebo, 0% SADBE in DMSO.

CCCCOc1c(OCCCC)c(=O)c1=O [2% SADBE]
Persons having an outbreak within X days after the sensitization dose (30 days, group B): 2 (of 16)
Persons having an outbreak within X days after the sensitization dose (30 days, group C): 3 (of 15)
Persons having an outbreak within X days after the sensitization dose (30 days, groups B + C): 5 (of 31)
Persons having an outbreak within X days after the sensitization dose (45 days, group B): 4 (of 16)
Persons having an outbreak within X days after the sensitization dose (45 days, group C): 4 (of 15)
Persons having an outbreak within X days after the sensitization dose (45 days, groups B + C): 8 (of 31)
Persons having an outbreak within X days after the sensitization dose (60 days, group B): 5 (of 16)
Persons having an outbreak within X days after the sensitization dose (60 days, group C): 4 (of 15)
Persons having an outbreak within X days after the sensitization dose (60 days, groups B + C): 9 (of 31)
Persons having an outbreak within X days after the sensitization dose (<120 days, group B): 6 (of 16)
Persons having an outbreak within X days after the sensitization dose (<120 days, group C): 4 (of 15)
Persons having an outbreak within X days after the sensitization dose (<120 days, groups B + C): 10 (of 31)
Days to first new outbreak after sensitization dose on upper arm (each patient): 18 days and 34 days and 37 days and 41 days and 50 days and 80 days and 91 days and >120 days (19×) and 14 days (2×) and 15 days
Average days to first outbreak after the sensitization dose (group B): 88.5 days
Average days to first outbreak after the sensitization dose (group C): 94.7 days
Average days to first outbreak after the sensitization dose (groups B + C): 91.5* days
Days to first new outbreak after sensitization dose on upper arm, median (treatment group): > 120 days
